The results in this text go back to publication PMC7948503, “Optimization of a peptide ligand for the adhesion GPCR ADGRG2 provides a potent tool to explore receptor biology” (The Journal of Biological Chemistry, 2020).

Non-standard residues stand in square brackets, D forms with d. Residues, ends and D or L forms follow the SMILES beside them. Primed or numbered codes have the meaning given here. No end group written: not given here. *: point of attachment. FITC = O=C1OC2(c3ccc(O)cc3Oc3cc(O)ccc32)c2ccc(NC(=S)*)cc21; Phe(4-Me) = Cc1ccc(C[C@H](N)C(=O)O)cc1; FITC′ = not defined here

In general, EC50 refers to the midpoint of the concentration-response curve. A low value points to greater potency.

One assay deals with T1, Rluc-ADGRG2-ΔGPS-β V836A (Mus musculus, UniProt Q8CJ12, V850A).
T1 construct: expressed in transfected cells; host or cells: HEK293
Briefly: BRET binding of FITC-VPM-p15. The note with it: mutant V836A. How it is done:
(§1) The binding capacities of ADGRG2 WT or its mutants for VPM-p15 were determined by BRET assay, which has been used in previous studies ([27], [28], [29]). We fused the N terminus of ADGRG2 with a Rluc fragment and coupled FITC to the C terminus of VPM-p15 to facilitate BRET measurement. We stimulated the HEK293 cells transfected with Rluc-ADGRG2-ΔGPS-β wildtype (WT) or mutants by increasing the concentration of FITC-conjugated VPM-p15, and their binding abilities were determined by fitting the data with the saturation curves.
(§2) In the detection of binding capacities of ADGRG2 WT or its mutants for VPM-p15, HEK293 cells were transfected with Rluc-ADGRG2-ΔGPS-β or mutants. Transfected cells were stimulated by increasing the concentration of FITC-conjugated VPM-p15. Binding capacities were determined by BRET, EC50 values of ADGRG2 WT and its mutants for binding VPM-p15 were calculated by GraphPad, and data were normalized by EC50 of WT.
A general note: Bioluminescence resonance energy transfer reports proximity on the nanometre scale.

The next assay deals with T2, Rluc-ADGRG2-ΔGPS-β F829A (Mus musculus, UniProt Q8CJ12, F843A).
T2 construct: expressed in transfected cells; host or cells: HEK293
Briefly: BRET binding of FITC-VPM-p15. Conditions: mutant F829A. How it is done:
as §1, §2

In a further assay the target is T3, Rluc-ADGRG2-ΔGPS-β F828A (Mus musculus, UniProt Q8CJ12, F842A).
T3 construct: expressed in transfected cells; host or cells: HEK293
As to the kind of experiment: BRET binding of FITC-VPM-p15. Conditions: mutant F828A. On the procedure: as §1, §2

The next assay concerns the target T4, Rluc-ADGRG2-ΔGPS-β S661A (Mus musculus, UniProt Q8CJ12, S675A).
T4 construct: the entire ECD (including the entire GPS motif) was removed (ADGRG2-ΔGPS-β); expressed in transfected cells; host or cells: HEK293
Briefly: BRET binding of FITC-VPM-p15. Conditions: mutant S661A. On the procedure: as §1, §2

A further assay concerns the target T5, Rluc-ADGRG2-ΔGPS-β V769A (Mus musculus, UniProt Q8CJ12, V783A).
T5 construct: expressed in transfected cells; host or cells: HEK293
As to the kind of experiment: BRET binding of FITC-VPM-p15. Conditions: mutant V769A. How it is done: as §1, §2

The next assay addresses T6, Rluc-ADGRG2-ΔGPS-β F764A (Mus musculus, UniProt Q8CJ12, F778A).
T6 construct: the entire ECD (including the entire GPS motif) was removed (ADGRG2-ΔGPS-β); expressed in transfected cells; host or cells: HEK293
As to the kind of experiment: BRET binding of FITC-VPM-p15. The note with it: mutant F764A. On the procedure: as §1, §2

Another assay addresses T7, Rluc-ADGRG2-ΔGPS-β F826A (Mus musculus, UniProt Q8CJ12, F840A).
T7 construct: expressed in transfected cells; host or cells: HEK293
As to the kind of experiment: BRET binding of FITC-VPM-p15. Conditions: mutant F826A. How it is done:
as §1, §2

For a further assay, the target named is T8, Rluc-ADGRG2-ΔGPS-β V768A (Mus musculus, UniProt Q8CJ12, V782A).
T8 construct: the entire ECD (including the entire GPS motif) was removed (ADGRG2-ΔGPS-β); expressed in transfected cells; host or cells: HEK293
As to the kind of experiment: BRET binding of FITC-VPM-p15. Conditions: mutant V768A. How it is done: as §1, §2

For the next assay, the target named is T9, Rluc-ADGRG2-ΔGPS-β F671A (Mus musculus, UniProt Q8CJ12, F685A).
T9 construct: the entire ECD (including the entire GPS motif) was removed (ADGRG2-ΔGPS-β); expressed in transfected cells; host or cells: HEK293
As to the kind of experiment: BRET binding of FITC-VPM-p15. The note with it: mutant F671A. How it is done:
as §1, §2

The target in the next assay is T10, Rluc-ADGRG2-ΔGPS-β T610A (Mus musculus, UniProt Q8CJ12, T624A).
T10 construct: the entire ECD (including the entire GPS motif) was removed (ADGRG2-ΔGPS-β); expressed in transfected cells; host or cells: HEK293
Briefly: BRET binding of FITC-VPM-p15. Conditions: mutant T610A. On the procedure:
as §1, §2

Another assay deals with T11, Rluc-ADGRG2-ΔGPS-β V774A (mouse, UniProt Q8CJ12-3 38-995, V774A).
T11 construct: ADGRG2 (GPR64), mouse, ADGRG2-ΔGPS-β: the entire ECD removed; source: HEK293, transfected, on cells; not shown: Rluc, N-terminal, kept
Briefly: FRET or BRET; HEK293 cells transfected with Rluc-ADGRG2-ΔGPS-β WT or mutants, stimulated by increasing concentrations of FITC-conjugated VPM-p15; saturation curves fitted with GraphPad; each experiment repeated 6 times. The note with it: one partner purified.

Another assay addresses T12, Rluc-ADGRG2-ΔGPS-β N667A (mouse, UniProt Q8CJ12-3 38-995, N667A).
T12 construct: ADGRG2 (GPR64), mouse, ADGRG2-ΔGPS-β: the entire ECD removed; source: HEK293, transfected, on cells; not shown: Rluc, N-terminal, kept
The assay is described as above. Conditions: one partner purified.

For another assay, the target named is T13, Rluc-ADGRG2-ΔGPS-β Y666A (mouse, UniProt Q8CJ12-3 38-995, Y666A).
T13 construct: ADGRG2 (GPR64), mouse, ADGRG2-ΔGPS-β: the entire ECD removed; source: HEK293, transfected, on cells; not shown: Rluc, N-terminal, kept
Described as above. The note with it: one partner purified.

A further assay addresses T14, Rluc-ADGRG2-ΔGPS-β I844A (mouse, UniProt Q8CJ12-3 38-995, I844A).
T14 construct: ADGRG2 (GPR64), mouse, ADGRG2-ΔGPS-β: the entire ECD removed; source: HEK293, transfected, on cells; not shown: Rluc, N-terminal, kept
The assay is described as above. The note with it: one partner purified.

For the next assay, the target named is T15, Rluc-ADGRG2-ΔGPS-β S760A (mouse, UniProt Q8CJ12-3 38-995, S760A).
T15 construct: ADGRG2 (GPR64), mouse, ADGRG2-ΔGPS-β: the entire ECD removed; source: HEK293, transfected, on cells; not shown: Rluc, N-terminal, kept
The description is as above. Conditions: one partner purified.

The target in a further assay is T16, Rluc-ADGRG2-ΔGPS-β N759A (mouse, UniProt Q8CJ12-3 38-995, N759A).
T16 construct: ADGRG2 (GPR64), mouse, ADGRG2-ΔGPS-β: the entire ECD removed; source: HEK293, transfected, on cells; not shown: Rluc, N-terminal, kept
Described as above. Conditions: one partner purified.

Where [1] appears, read: Kd(mutated ADGRG2-ΔGPS-β)/Kd(WT).

T5 sequence (Q8CJ12 614-1009 V783A): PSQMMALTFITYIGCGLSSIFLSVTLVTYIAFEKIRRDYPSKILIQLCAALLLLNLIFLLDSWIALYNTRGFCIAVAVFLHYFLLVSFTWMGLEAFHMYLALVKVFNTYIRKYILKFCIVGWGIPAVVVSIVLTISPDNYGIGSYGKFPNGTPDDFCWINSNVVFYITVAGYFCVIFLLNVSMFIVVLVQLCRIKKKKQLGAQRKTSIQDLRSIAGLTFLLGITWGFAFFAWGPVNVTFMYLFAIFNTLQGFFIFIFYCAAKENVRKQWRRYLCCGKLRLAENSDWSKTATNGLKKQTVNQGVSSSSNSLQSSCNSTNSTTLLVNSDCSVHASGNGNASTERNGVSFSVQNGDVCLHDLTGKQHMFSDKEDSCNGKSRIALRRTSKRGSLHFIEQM
T9 sequence (Q8CJ12 618-1009 F685A limits assumed): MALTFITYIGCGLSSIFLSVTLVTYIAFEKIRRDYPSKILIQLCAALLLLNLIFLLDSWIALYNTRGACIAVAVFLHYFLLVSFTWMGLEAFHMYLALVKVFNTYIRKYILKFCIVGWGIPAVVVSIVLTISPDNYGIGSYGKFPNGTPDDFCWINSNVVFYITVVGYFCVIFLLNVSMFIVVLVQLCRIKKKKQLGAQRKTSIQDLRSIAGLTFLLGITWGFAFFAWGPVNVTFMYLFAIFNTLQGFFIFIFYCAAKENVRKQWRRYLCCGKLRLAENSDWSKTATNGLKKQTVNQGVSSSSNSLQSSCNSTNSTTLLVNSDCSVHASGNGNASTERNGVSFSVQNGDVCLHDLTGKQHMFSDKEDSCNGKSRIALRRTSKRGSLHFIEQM
T10 sequence (Q8CJ12 618-1009 T624A limits assumed): as the sequence (Q8CJ12 618-1009 F685A limits assumed) above, with T7A, A68F counted along it
T7 sequence (Q8CJ12 614-1009 F840A): as the sequence (Q8CJ12 614-1009 V783A) above, with A170V, F227A counted along it
T4 sequence (Q8CJ12 618-1009 S675A limits assumed): as the sequence (Q8CJ12 618-1009 F685A limits assumed) above, with S58A, A68F counted along it
T1 sequence (Q8CJ12 614-1009 V850A): as the sequence (Q8CJ12 614-1009 V783A) above, with A170V, V237A counted along it
T6 sequence (Q8CJ12 618-1009 F778A limits assumed): as the sequence (Q8CJ12 618-1009 F685A limits assumed) above, with A68F, F161A counted along it
T3 sequence (Q8CJ12 614-1009 F842A): as the sequence (Q8CJ12 614-1009 V783A) above, with A170V, F229A counted along it
T8 sequence (Q8CJ12 618-1009 V782A limits assumed): as the sequence (Q8CJ12 618-1009 F685A limits assumed) above, with A68F, V165A counted along it
T2 sequence (Q8CJ12 614-1009 F843A): as the sequence (Q8CJ12 614-1009 V783A) above, with A170V, F230A counted along it
T15 sequence (Q8CJ12 other isoform, or with tags, fused parts or gaps S760A | S760A | S760A S760A): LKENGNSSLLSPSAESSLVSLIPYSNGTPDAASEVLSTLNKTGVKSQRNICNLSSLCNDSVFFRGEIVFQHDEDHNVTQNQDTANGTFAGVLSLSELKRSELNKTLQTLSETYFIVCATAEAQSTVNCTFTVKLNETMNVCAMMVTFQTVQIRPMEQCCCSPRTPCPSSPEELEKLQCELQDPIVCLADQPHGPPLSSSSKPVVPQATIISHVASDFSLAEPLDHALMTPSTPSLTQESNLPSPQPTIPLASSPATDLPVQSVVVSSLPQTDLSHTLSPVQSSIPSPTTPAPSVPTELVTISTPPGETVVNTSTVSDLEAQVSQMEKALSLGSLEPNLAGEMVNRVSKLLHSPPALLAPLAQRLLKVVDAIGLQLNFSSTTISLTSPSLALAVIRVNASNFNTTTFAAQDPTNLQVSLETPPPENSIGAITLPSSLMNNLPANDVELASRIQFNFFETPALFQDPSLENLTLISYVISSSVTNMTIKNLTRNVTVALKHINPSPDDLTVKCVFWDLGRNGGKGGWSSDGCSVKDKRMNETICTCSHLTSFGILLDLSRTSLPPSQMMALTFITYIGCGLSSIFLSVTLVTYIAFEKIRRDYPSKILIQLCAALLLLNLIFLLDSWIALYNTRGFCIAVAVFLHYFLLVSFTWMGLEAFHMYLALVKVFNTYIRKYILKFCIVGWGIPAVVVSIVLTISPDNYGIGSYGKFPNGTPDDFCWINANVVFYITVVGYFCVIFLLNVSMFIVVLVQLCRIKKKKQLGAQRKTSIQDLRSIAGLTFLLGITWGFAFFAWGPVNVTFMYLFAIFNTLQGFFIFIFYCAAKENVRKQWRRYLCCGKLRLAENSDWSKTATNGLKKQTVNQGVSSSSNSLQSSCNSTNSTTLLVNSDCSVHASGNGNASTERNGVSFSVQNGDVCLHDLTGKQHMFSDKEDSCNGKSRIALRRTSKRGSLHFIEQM
T13 sequence (Q8CJ12 other isoform, or with tags, fused parts or gaps Y666A | Y666A | Y666A Y666A): as the sequence (Q8CJ12 other isoform, or with tags, fused parts or gaps S760A | S760A | S760A S760A) above, with Y629A, A723S counted along it
T14 sequence (Q8CJ12 other isoform, or with tags, fused parts or gaps I844A | I844A | I844A I844A): as the sequence (Q8CJ12 other isoform, or with tags, fused parts or gaps S760A | S760A | S760A S760A) above, with A723S, I807A counted along it
T12 sequence (Q8CJ12 other isoform, or with tags, fused parts or gaps N667A | N667A | N667A N667A): as the sequence (Q8CJ12 other isoform, or with tags, fused parts or gaps S760A | S760A | S760A S760A) above, with N630A, A723S counted along it
T16 sequence (Q8CJ12 other isoform, or with tags, fused parts or gaps N759A | N759A | N759A N759A): as the sequence (Q8CJ12 other isoform, or with tags, fused parts or gaps S760A | S760A | S760A S760A) above, with N722A, A723S counted along it
T11 sequence (Q8CJ12 other isoform, or with tags, fused parts or gaps V774A | V774A | V774A V774A): as the sequence (Q8CJ12 other isoform, or with tags, fused parts or gaps S760A | S760A | S760A S760A) above, with A723S, V737A counted along it

For the molecule `CC[C@H](C)[C@H](NC(=O)CNC(=O)[C@H](Cc1ccc(C)cc1)NC(=O)[C@H](CO)NC(=O)[C@@H](N)C(C)C)C(=O)N[C@@H](CC(C)C)C(=O)N[C@@H](CC(C)C)C(=O)N[C@@H](CC(=O)O)C(=O)N[C@@H](CC(C)C)C(=O)N[C@@H](CO)C(=O)N[C@@H](CCCNC(=N)N)C(=O)N[C@H](C(=O)N[C@@H](CO)C(=O)N[C@@H](CC(C)C)C(=O)N1CCC[C@H]1C(=O)N[C@@H](CCCCNC(=S)Nc1ccc2c(c1)C(=O)OC21c2ccc(O)cc2Oc2cc(O)ccc21)C(=O)O)[C@@H](C)O` [FITC-VPM-p15] (H-VS[Phe(4-Me)]GILLDLSRTSLPK(FITC)-OH; N-terminus and C-terminus assumed), the Fmut at Rluc-ADGRG2-ΔGPS-β V836A (setting [1]) is on record as 1.315; on Rluc-ADGRG2-ΔGPS-β F829A (setting [1]), 0.344; at Rluc-ADGRG2-ΔGPS-β F828A (setting [1]), 1.247; at Rluc-ADGRG2-ΔGPS-β S661A (setting [1]), 0.832; on Rluc-ADGRG2-ΔGPS-β V769A (setting [1]), 1.145; on Rluc-ADGRG2-ΔGPS-β F764A (setting [1]), 1.183. Further, the Fmut at Rluc-ADGRG2-ΔGPS-β F826A (setting [1]) worked out at 1.248; on Rluc-ADGRG2-ΔGPS-β V768A (setting [1]) it was 1.112; on Rluc-ADGRG2-ΔGPS-β F671A (setting [1]), 0.940; on Rluc-ADGRG2-ΔGPS-β T610A (setting [1]) it was 1.197. Further, the Bmax is 0.775±0.030 on Rluc-ADGRG2-ΔGPS-β V836A (binding Bmax (BRET)); 0.817±0.050 on Rluc-ADGRG2-ΔGPS-β F829A (binding Bmax (BRET)); 0.706±0.006 on Rluc-ADGRG2-ΔGPS-β F828A (binding Bmax (BRET)); 0.6895±0.021 at Rluc-ADGRG2-ΔGPS-β S661A (binding Bmax (BRET)); 0.763±0.074 at Rluc-ADGRG2-ΔGPS-β V769A (binding Bmax (BRET)); 0.814±0.039 at Rluc-ADGRG2-ΔGPS-β F764A (binding Bmax (BRET)). Besides, the Bmax at Rluc-ADGRG2-ΔGPS-β F826A (binding Bmax (BRET)) is on record as 0.734±0.035; on Rluc-ADGRG2-ΔGPS-β V768A (binding Bmax (BRET)), 0.792±0.029; on Rluc-ADGRG2-ΔGPS-β F671A (binding Bmax (BRET)), 0.833±0.050; at Rluc-ADGRG2-ΔGPS-β T610A (binding Bmax (BRET)) it was 0.8072±0.024.

Turning to VS[Phe(4-Me)]GILLDLSRTSLP-{FITC′} [FITC-conjugated VPM-p15 (ADGRG2 Stachel peptide p15 T1V/F3Phe(4-Me))], the half-maximal effective concentration (EC50) with Rluc-ADGRG2-ΔGPS-β V774A turned out to be 1.07 µM; in the assay with Rluc-ADGRG2-ΔGPS-β N667A it was 0.913 µM; with Rluc-ADGRG2-ΔGPS-β Y666A, 0.838 µM; in the assay with Rluc-ADGRG2-ΔGPS-β I844A, 1.54 µM; with Rluc-ADGRG2-ΔGPS-β S760A, 1.35 µM; with Rluc-ADGRG2-ΔGPS-β N759A it was 1.55 µM.
